Patent publication US10973748B2, “Compositions and methods for lightening skin and reducing hyperpigmentation” (Versitech Limited, priority 2016, dated 2021)

What was measured:
Format in all cases: cell-based, murine
[1] = tested on: melan-a cells; assay: Cellular melanin content (SRB combined assay); conditions: α-MSH, 72 hrs
Experimental: Murine melan-a cells (an immortalized, non-tumorigenic murine melanocyte cell line) were obtained from Chinese University of Hong Kong. Cells were cultured in RPMI 1640 medium. Culture medium was supplemented with 10% FBS and 1% penicillin-streptomycin and the cells were incubated at 37° C. in 5% CO2. […] The tested chemical agents (e.g., 6-CEPN and Kojic acid) were individually dissolved as a stock solution at a concentration of 100 mM in 100% dimethyl sulfoxide (DMSO). The stock solution was diluted using culture medium to the desired final concentrations immediately prior to use.
Melan-a cells (3×10^5 cells/well) were plated in 2 mL of 12-well multidishes for at least 24 hrs prior to use. […] Melanin content was measured using a sulphorhodamine B (SRB) combined assay (Lam R Y et al., J Ethnopharmacol, 132(1):274-9 (2010); Chinese patent application publication no. CN 104758191 A) to ensure any reduction in the melanin content was not due to the death of melan-a cells. As the colorimetric-based SRB assay could accurately estimate the number of viable cells, the melanin level was expressed as melanin content versus each single cell by taking into account the results of viable cells from the SRB assay. […] After a 72 h incubate, cell number was counted using SRB assay. […] The OD value was read at 595 nm. […]

[2] = biological target: T1, tyrosinase (Mus musculus, UniProt P11344); assay: Cellular tyrosinase activity assay (L-DOPA oxidation in cell lysates); conditions: melan-a cells, α-MSH, 72 hrs; 6-CEPN 10 or 20 μM, 8-CEPQ 2.5 or 5 μM
T1 construct: endogenous in cells; host or cells: melan-a cells
T1 sequence (P11344 19-533): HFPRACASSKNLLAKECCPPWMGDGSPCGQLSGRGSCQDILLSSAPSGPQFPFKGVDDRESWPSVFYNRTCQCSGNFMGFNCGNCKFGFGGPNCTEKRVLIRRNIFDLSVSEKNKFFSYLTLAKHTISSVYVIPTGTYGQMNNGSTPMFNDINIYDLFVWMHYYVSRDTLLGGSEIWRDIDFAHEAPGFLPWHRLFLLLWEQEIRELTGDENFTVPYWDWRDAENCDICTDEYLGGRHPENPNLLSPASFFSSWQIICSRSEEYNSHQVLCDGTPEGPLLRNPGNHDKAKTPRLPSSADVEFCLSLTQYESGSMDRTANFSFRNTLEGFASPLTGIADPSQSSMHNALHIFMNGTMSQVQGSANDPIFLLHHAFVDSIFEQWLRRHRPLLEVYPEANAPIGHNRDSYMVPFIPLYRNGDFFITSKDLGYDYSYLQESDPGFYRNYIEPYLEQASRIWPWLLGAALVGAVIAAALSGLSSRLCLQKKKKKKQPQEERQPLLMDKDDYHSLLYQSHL
Experimental: Cellular tyrosinase activity was determined by measuring the oxidation of L-3,4-dihydroxyphenylalanine (L-DOPA) to dopachrome in cell lysates. Melan-a cells (1.5×10^5 cells/well) were plated in 1 mL of culture medium in a 24-well multidishes for at least 24 hrs prior to use. The cells were treated with α-MSH (1 μM) alone or with α-MSH plus different concentrations of testing agents for 72 hrs. The cells were washed with cold PBS and lysed in 900 μL of PBS with 1% Triton X-100. After being freeze-thawed at −80° C. for 30 min followed by 25° C. for 30 min, 100 μL of 10 mM L-DOPA was then added to each well. Following incubation at 37° C. for 1 hr, the absorbance of the agents was measured at 490 nm using Victor X4 Multilabel Plate Reader (PerkinElmer, Mass., USA).

[3] = tested on: tyrosinase; assay: Western blotting of tyrosinase protein level in melan-a cells; conditions: α-MSH, 72 hrs, 20 μM
Experimental: (§1) Melan-a cells (3×10^5 cells/well) were seeded in 4 mL of culture medium in a 6-well plate for at least 24 hrs prior to use. The cells were treated with α-MSH (1 μM) alone, α-MSH plus plus different concentration of agents for 72 hrs. The cells were washed with cold PBS and then lysed in 100 μL of RIPA buffer containing 1% Nonidet P-40, 0.1% sodium dodecylsulfate, 0.5% sodium deoxycholate, and 2% protease inhibitor at 4° C. Samples were centrifuged at 14,000 rpm for 30 mins at 4° C., and total proteins in the supernatant were separated. 10 μg of denatured proteins were loaded per lane, and separated by 10% SDS-PAGE gel. Proteins were then transferred to Immobilon-P Transfer Membranes (Millipore Co., Bed-ford, Mass.) by semidry transfer. Membranes were incubated with primary antibodies specific for Tyrosinase, tyrosinase-related protein-1 (TRP1), tyrosinase-related protein-2 (TRP2), and microphthalmia-associated transcription factor (MITF). The blots were subsequently washed and incubated with the appropriate secondary antibodies. Immunoreactive protein bands were visualized with enhanced chemiluminescence western blotting detection reagents and quantified using an ODYSSEY Fc Imaging system. The amounts of protein loaded were normalized against a control protein, β-actin.

[4] = tested on: tyrosinase-related protein-1 (TRP1); assay: Western blotting of TRP-1 protein level in melan-a cells; conditions: α-MSH, 72 hrs, 20 μM
Experimental: as §1

Question: `O=C1C[C@@H](c2ccc(O)cc2)Oc2cc(O)c(/C=C/c3ccccc3)c(O)c21` [6-CEPN, 6-C-(E-phenylethenyl)-naringenin] was tested. Which “depigmenting effects (in words)” value [1] did it give?
Answer: much stronger depigmenting effects than kojic acid

Question: And the depigmentation ([1]; 20 μM)?
Answer: ~80%

Question: What about the tyrosinase activity [2] of the same compound?
Answer: significant inhibition on tyrosinase activity in a dose-dependent manner

Question: And the “protein level of tyrosinase” value [3]?
Answer: significantly suppressed

Question: What about the “protein level of TRP-1” value [4] of the same compound?
Answer: significantly suppressed
